According to patent US4537885A, “Certain benzazocinone and benzazoninone derivatives” (Ciba Geigy Corporation, priority 1984, dated 1985):
Counter-ions that a name gives are not always drawn.

Tests used:
[1] = molecular target: T1, angiotensin-converting enzyme (Oryctolagus cuniculus, UniProt P12822); assay: in vitro inhibition of the angiotensin-converting enzyme (hippuryl-histidyl-leucine substrate); assay type: biochemical, rabbit; details: in vitro test; enzyme from lungs of adult male rabbits; 37° C., 30 minutes
T1 construct: angiotensin-converting enzyme preparation (from lungs of adult male rabbits); from tissue; host or cells: lungs of adult male rabbits
T1 sequence (P12822 34-1310): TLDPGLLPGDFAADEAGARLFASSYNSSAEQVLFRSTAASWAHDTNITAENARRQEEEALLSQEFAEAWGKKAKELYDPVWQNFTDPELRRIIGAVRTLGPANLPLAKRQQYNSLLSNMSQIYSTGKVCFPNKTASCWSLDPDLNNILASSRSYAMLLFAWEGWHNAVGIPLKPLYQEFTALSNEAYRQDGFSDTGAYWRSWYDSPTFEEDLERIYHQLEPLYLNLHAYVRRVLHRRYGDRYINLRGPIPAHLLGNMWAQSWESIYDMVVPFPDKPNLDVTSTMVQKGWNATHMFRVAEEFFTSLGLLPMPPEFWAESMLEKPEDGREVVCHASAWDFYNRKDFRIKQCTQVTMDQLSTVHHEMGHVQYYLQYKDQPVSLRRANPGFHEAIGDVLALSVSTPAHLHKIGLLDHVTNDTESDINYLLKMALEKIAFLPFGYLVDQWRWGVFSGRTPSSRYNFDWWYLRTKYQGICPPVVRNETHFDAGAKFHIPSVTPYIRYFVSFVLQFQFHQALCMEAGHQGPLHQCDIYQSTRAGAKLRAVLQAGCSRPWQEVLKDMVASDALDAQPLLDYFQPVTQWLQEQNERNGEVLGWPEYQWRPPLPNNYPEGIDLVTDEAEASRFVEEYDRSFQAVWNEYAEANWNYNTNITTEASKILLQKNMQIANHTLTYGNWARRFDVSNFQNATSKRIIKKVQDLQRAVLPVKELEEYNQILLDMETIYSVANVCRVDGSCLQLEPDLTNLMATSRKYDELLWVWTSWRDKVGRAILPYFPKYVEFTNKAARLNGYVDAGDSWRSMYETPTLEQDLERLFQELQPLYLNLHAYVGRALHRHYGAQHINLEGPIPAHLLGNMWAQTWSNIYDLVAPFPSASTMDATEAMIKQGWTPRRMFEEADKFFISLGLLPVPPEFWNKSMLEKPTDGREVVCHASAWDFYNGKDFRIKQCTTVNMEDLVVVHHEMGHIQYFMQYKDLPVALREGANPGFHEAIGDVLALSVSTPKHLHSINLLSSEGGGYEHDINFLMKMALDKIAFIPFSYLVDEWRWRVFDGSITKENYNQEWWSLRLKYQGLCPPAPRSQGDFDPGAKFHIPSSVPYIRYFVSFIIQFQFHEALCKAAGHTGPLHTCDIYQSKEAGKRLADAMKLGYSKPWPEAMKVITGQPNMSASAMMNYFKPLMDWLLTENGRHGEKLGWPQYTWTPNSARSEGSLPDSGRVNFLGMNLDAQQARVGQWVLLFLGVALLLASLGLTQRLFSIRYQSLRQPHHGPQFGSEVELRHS
Method: Biophys. Acta 293, 451 (1973). According to this method, said compounds are dissolved at about 1 mM concentration in phosphate buffer. […] Said solutions are incubated at 37° C. for 30 minutes and combined with 0.75 ml of 0.6N aqueous sodium hydroxide to stop further reaction. Then 100 microliters of a 0.2% solution of o-phthalaldehyde in methanol are added at room temperature, and 10 minutes later 100 microliters of 6N hydrochloric acid. These samples are read against water in a spectrophotometer set at 360 nm, and the optical densities thereof estimated. They are corrected for the standard curve via a conversion factor expressing nanomoles of histidyl-leucine formed during said 30 minute incubation period. The results are plotted against concentration to determine the IC50, i.e., the concentration of the compound which gives half the activity of the control sample. Illustrative of the invention, and according to the test methods previously described, the following angiotensin-converting enzyme inhibition data is obtained.

[2] = test system: angiotensin-converting enzyme; assay: in vivo inhibition of the Angiotensin I induced pressor response in anesthetized normotensive rats; details: p.o. administration of 3.3 mg/kg (rat), at 1 hr
Method: Angiotensin I is hydrolyzed by the action of said converting enzyme to the potent pressor substance Angiotensin II. The inhibition of said enzyme prevents the generation of Angiotensin II from I and, therefore, attenuates any pressor response following an Angiotensin I challenge.
The corresponding in vivo test is performed with male, normotensive rats, which are anesthetized with sodium 5-ethyl-5-(1-methylpropyl)-2-thiobarbiturate. A femoral artery and saphenous vein are cannulated respectively for direct blood pressure measurement and the i.v. administration of Angiotensin I and a compound of this invention. After the basal blood pressure is stabilized, pressor responses to 3 challenges of 333 ng/kg angiotensin I i.v., at 5 minute intervals, are obtained. Such pressure resonses are usually again obtained at 5, 10, 15, 30 and 60 minutes after i.v. administration or 1, 2, 3 and 4 hours after p.o. administration of the compound to be tested, and compared with the initial responses. Any observed decrease of said pressor response caused by the compounds of the invention is an indication of Angiotensin I converting enzyme inhibition.
Illustrative of the invention, and according to the test methods previously described, the following angiotensin-converting enzyme inhibition data is obtained.

| SMILES | IC50 [1] [nM] | inhibition of Angiotensin I pressor response (in vivo test) [2] [%] |
| --- | --- | --- |
| O=C(O)CN1C(=O)[C@@H](N[C@@H](CCc2ccccc2)C(=O)O)CCCc2ccccc21 [example 7a, 1-carboxymethyl-3-(1-carboxy-3-phenyl-(1S)-propylamino)-3,4,5,6-tetrahydro-(3S)-1-benzazocin-2-1H-one hydrochloride] | 7.5 |  |
| CCOC(=O)[C@H](CCc1ccccc1)N[C@H]1CCCc2ccccc2N(CC(=O)O)C1=O [example 8a, 1-carboxymethyl-3-(1-ethoxycarbonyl-3-phenyl-(1S)-propylamino-3,4,5,6-tetrahydro-(3S)-1-benzazocin-2-1H-one hydrochloride] |  | 69 |
| NCCCC[C@H](N[C@H]1CCCc2ccccc2N(CC(=O)O)C1=O)C(=O)O [S,S compound of example 12, 3-[(5-amino-1-(S)-carboxypentyl)amino]-1-carboxymethyl-3,4,5,6-tetrahydro-(3S)-1-benzazocin-2-1H-one hydrochloride] | 27 |  |
